Data as given in US8192962B2, “Processes for detecting toxic substances” (Daikin Industries, Ltd., priority 2001, dated 2012).

Test system: Stress protein genes
Assay: DNA chip mRNA expression in yeast, stress protein genes (Table 6)
Type: cell-based, Saccharomyces cerevisiae S288C
In short: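 Chemical exposure: 2 h, log-phase S. cerevisiae S288C, YPD, 25° C., dose set to inhibit growth without death. Profiling: mRNA labeled by reverse transcription with Cy3- or Cy5-dUTP, hybridized to whole-genome array. Output: fluorescence ratio against untreated culture.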

CCCCC[C@H](O)CC(=O)CCc1ccc(O)c(OC)c1 [(13), gingerol]
The level of expressed mRNA in the presence of chemical substance/The level of expressed mRNA in the absence of chemical substance (yeast gene YAL015C): 1.2 | The level of expressed mRNA in the presence of chemical substance/The level of expressed mRNA in the absence of chemical substance (yeast gene YBL093C): 2.1 | The level of expressed mRNA in the presence of chemical substance/The level of expressed mRNA in the absence of chemical substance (yeast gene YBR044C): 1.2 | The level of expressed mRNA in the presence of chemical substance/The level of expressed mRNA in the absence of chemical substance (yeast gene YBR054W): 1.5 | The level of expressed mRNA in the presence of chemical substance/The level of expressed mRNA in the absence of chemical substance (yeast gene YBR067C): 0.9 | The level of expressed mRNA in the presence of chemical substance/The level of expressed mRNA in the absence of chemical substance (yeast gene YBR126C): 2.1 | The level of expressed mRNA in the presence of chemical substance/The level of expressed mRNA in the absence of chemical substance (yeast gene YCL035C): 2.8 | The level of expressed mRNA in the presence of chemical substance/The level of expressed mRNA in the absence of chemical substance (yeast gene YCR021C): 0.9 | The level of expressed mRNA in the presence of chemical substance/The level of expressed mRNA in the absence of chemical substance (yeast gene YCR083W): 1.8 | The level of expressed mRNA in the presence of chemical substance/The level of expressed mRNA in the absence of chemical substance (yeast gene YDL022W): 1.5 | The level of expressed mRNA in the presence of chemical substance/The level of expressed mRNA in the absence of chemical substance (yeast gene YDL025C): 1.2 | The level of expressed mRNA in the presence of chemical substance/The level of expressed mRNA in the absence of chemical substance (yeast gene YDR033W): 0.7 | The level of expressed mRNA in the presence of chemical substance/The level of expressed mRNA in the absence of chemical substance (yeast gene YDR077W): 1.0 | The level of expressed mRNA in the presence of chemical substance/The level of expressed mRNA in the absence of chemical substance (yeast gene YDR098C): 1.2 | The level of expressed mRNA in the presence of chemical substance/The level of expressed mRNA in the absence of chemical substance (yeast gene YDR155C): 3.3 | The level of expressed mRNA in the presence of chemical substance/The level of expressed mRNA in the absence of chemical substance (yeast gene YDR293C): 2.3 | The level of expressed mRNA in the presence of chemical substance/The level of expressed mRNA in the absence of chemical substance (yeast gene YDR513W): 1.8 | The level of expressed mRNA in the presence of chemical substance/The level of expressed mRNA in the absence of chemical substance (yeast gene YDR519W): 2.5 | The level of expressed mRNA in the presence of chemical substance/The level of expressed mRNA in the absence of chemical substance (yeast gene YEL039C): 0.5 | The level of expressed mRNA in the presence of chemical substance/The level of expressed mRNA in the absence of chemical substance (yeast gene YER042W): 1.4 | The level of expressed mRNA in the presence of chemical substance/The level of expressed mRNA in the absence of chemical substance (yeast gene YER057C): 1.0 | The level of expressed mRNA in the presence of chemical substance/The level of expressed mRNA in the absence of chemical substance (yeast gene YER125W): 1.9 | The level of expressed mRNA in the presence of chemical substance/The level of expressed mRNA in the absence of chemical substance (yeast gene YFL014W): 15.2 | The level of expressed mRNA in the presence of chemical substance/The level of expressed mRNA in the absence of chemical substance (yeast gene YFL016C): 2.8 | The level of expressed mRNA in the presence of chemical substance/The level of expressed mRNA in the absence of chemical substance (yeast gene YFL020C): 1.4 | The level of expressed mRNA in the presence of chemical substance/The level of expressed mRNA in the absence of chemical substance (yeast gene YFR052W): 3.8 | The level of expressed mRNA in the presence of chemical substance/The level of expressed mRNA in the absence of chemical substance (yeast gene YGL073W): 1.5 | The level of expressed mRNA in the presence of chemical substance/The level of expressed mRNA in the absence of chemical substance (yeast gene YGL115W): 0.7 | The level of expressed mRNA in the presence of chemical substance/The level of expressed mRNA in the absence of chemical substance (yeast gene YGR088W): 1.2 | The level of expressed mRNA in the presence of chemical substance/The level of expressed mRNA in the absence of chemical substance (yeast gene YHL028W): 2.1 | The level of expressed mRNA in the presence of chemical substance/The level of expressed mRNA in the absence of chemical substance (yeast gene YHL046C): 1.4 | The level of expressed mRNA in the presence of chemical substance/The level of expressed mRNA in the absence of chemical substance (yeast gene YHR030C): 1.0 | The level of expressed mRNA in the presence of chemical substance/The level of expressed mRNA in the absence of chemical substance (yeast gene YHR057C): 1.9 | The level of expressed mRNA in the presence of chemical substance/The level of expressed mRNA in the absence of chemical substance (yeast gene YHR104W): 1.2 | The level of expressed mRNA in the presence of chemical substance/The level of expressed mRNA in the absence of chemical substance (yeast gene YIL011W): 0.5 | The level of expressed mRNA in the presence of chemical substance/The level of expressed mRNA in the absence of chemical substance (yeast gene YIL033C): 2.5 | The level of expressed mRNA in the presence of chemical substance/The level of expressed mRNA in the absence of chemical substance (yeast gene YIR037W): 2.4 | The level of expressed mRNA in the presence of chemical substance/The level of expressed mRNA in the absence of chemical substance (yeast gene YIR038C): 2.5 | The level of expressed mRNA in the presence of chemical substance/The level of expressed mRNA in the absence of chemical substance (yeast gene YJL128C): 1.7 | The level of expressed mRNA in the presence of chemical substance/The level of expressed mRNA in the absence of chemical substance (yeast gene YJL159W): 1.7 | The level of expressed mRNA in the presence of chemical substance/The level of expressed mRNA in the absence of chemical substance (yeast gene YJL165C): 1.5 | The level of expressed mRNA in the presence of chemical substance/The level of expressed mRNA in the absence of chemical substance (yeast gene YJR045C): 2.3 | The level of expressed mRNA in the presence of chemical substance/The level of expressed mRNA in the absence of chemical substance (yeast gene YJR090C): 2.2 | The level of expressed mRNA in the presence of chemical substance/The level of expressed mRNA in the absence of chemical substance (yeast gene YKL161C): 1.3 | The level of expressed mRNA in the presence of chemical substance/The level of expressed mRNA in the absence of chemical substance (yeast gene YKL163W): 1.5 | The level of expressed mRNA in the presence of chemical substance/The level of expressed mRNA in the absence of chemical substance (yeast gene YKL164C): 0.9 | The level of expressed mRNA in the presence of chemical substance/The level of expressed mRNA in the absence of chemical substance (yeast gene YKL210W): 2.9 | The level of expressed mRNA in the presence of chemical substance/The level of expressed mRNA in the absence of chemical substance (yeast gene YKR053C): 0.7 | The level of expressed mRNA in the presence of chemical substance/The level of expressed mRNA in the absence of chemical substance (yeast gene YLL039C): 2.2 | The level of expressed mRNA in the presence of chemical substance/The level of expressed mRNA in the absence of chemical substance (yeast gene YLL060C): 1.8 | The level of expressed mRNA in the presence of chemical substance/The level of expressed mRNA in the absence of chemical substance (yeast gene YLR006C): 0.8 | The level of expressed mRNA in the presence of chemical substance/The level of expressed mRNA in the absence of chemical substance (yeast gene YLR109W): 3.2 | The level of expressed mRNA in the presence of chemical substance/The level of expressed mRNA in the absence of chemical substance (yeast gene YLR259C): 2.5 | The level of expressed mRNA in the presence of chemical substance/The level of expressed mRNA in the absence of chemical substance (yeast gene YML007W): 1.7 | The level of expressed mRNA in the presence of chemical substance/The level of expressed mRNA in the absence of chemical substance (yeast gene YMR021C): 1.4 | The level of expressed mRNA in the presence of chemical substance/The level of expressed mRNA in the absence of chemical substance (yeast gene YMR173W): 2.0 | The level of expressed mRNA in the presence of chemical substance/The level of expressed mRNA in the absence of chemical substance (yeast gene YMR186W): 2.4 | The level of expressed mRNA in the presence of chemical substance/The level of expressed mRNA in the absence of chemical substance (yeast gene YNL064C): 1.1 | The level of expressed mRNA in the presence of chemical substance/The level of expressed mRNA in the absence of chemical substance (yeast gene YNR076W): 0.9 | The level of expressed mRNA in the presence of chemical substance/The level of expressed mRNA in the absence of chemical substance (yeast gene YOL064C): 2.0 | The level of expressed mRNA in the presence of chemical substance/The level of expressed mRNA in the absence of chemical substance (yeast gene YOL161C): 1.2 | The level of expressed mRNA in the presence of chemical substance/The level of expressed mRNA in the absence of chemical substance (yeast gene YOR008C): 0.9 | The level of expressed mRNA in the presence of chemical substance/The level of expressed mRNA in the absence of chemical substance (yeast gene YOR010C): 0.5 | The level of expressed mRNA in the presence of chemical substance/The level of expressed mRNA in the absence of chemical substance (yeast gene YOR027W): 5.1 | The level of expressed mRNA in the presence of chemical substance/The level of expressed mRNA in the absence of chemical substance (yeast gene YOR208W): 1.5 | The level of expressed mRNA in the presence of chemical substance/The level of expressed mRNA in the absence of chemical substance (yeast gene YPL059W): 0.7 | The level of expressed mRNA in the presence of chemical substance/The level of expressed mRNA in the absence of chemical substance (yeast gene YPL106C): 3.1 | The level of expressed mRNA in the presence of chemical substance/The level of expressed mRNA in the absence of chemical substance (yeast gene YPL140C): 0.9 | The level of expressed mRNA in the presence of chemical substance/The level of expressed mRNA in the absence of chemical substance (yeast gene YPL194W): 1.4 | The level of expressed mRNA in the presence of chemical substance/The level of expressed mRNA in the absence of chemical substance (yeast gene YPL223C): 2.3 | The level of expressed mRNA in the presence of chemical substance/The level of expressed mRNA in the absence of chemical substance (yeast gene YPL240C): 2.9 | The level of expressed mRNA in the presence of chemical substance/The level of expressed mRNA in the absence of chemical substance (yeast gene YPR005C): 0.7 | The level of expressed mRNA in the presence of chemical substance/The level of expressed mRNA in the absence of chemical substance (yeast gene YPR026W): 2.3
